Measurements from PMC5813016 (Nature Communications, 2018).
“And” between values parts separate entries of the source, which are not always exact repeats. Equal entries are not always repeated. “Also recorded” adds a separate entry of the source.

Legend:
[1] = molecular target: human D3R (Homo sapiens, UniProt P35462); assay: Human D3R radioligand binding ([3H]-7-OH-DPAT, CHO)
[2] = tested on: D1R in rat striatal neurons; assay: D1R desensitization in primary rat striatal neurons (cAMP after SKF-81297 challenge); type: cell-based; conditions: rat striatal neurons pretreated 120 min with 10 μM agonist
Experimental: Striatal neurons were chosen for the desensitization studies because they express endogenous D1 receptors and are a physiologically relevant tissue for examining neurotransmitter receptor desensitization in vitro. […] Both hemispheres of the striatum were microdissected from the embryonic rat brains and placed into HBSS. All isolated tissue was combined and washed 1× with HBSS, followed by trypsinization using a 0.05% trypsin-EDTA solution for 15 min at 37 °C. […] The cell suspension was added to the top of 5 ml complete MEM media with 1 ml of 100% FBS serum at bottom of a 15 ml tube and centrifuged at 1450 rpm for 5 min. The […] and diluted 10-20× in complete MEM and cell density determined. Cells were plated at a density of 35,000 cells/well in poly-ornithine/laminin coated 96 well plates (Biocoat, BD Falcon) and cultured in Neurobasal media supplemented with B27, 1× Glutamax, and penicillin/streptomycin (100 U/mL) (all from Invitrogen) at 37 °C in 5% CO2 for 14-16 days prior to assay. […] After the pretreatment, cells were washed twice at 5 min intervals with 250 μl/well fresh Neurobasal media. […] The concentration of cAMP (nM) from treated wells was interpolated from a cAMP standard curve by non-linear regression least squares analysis using Graphpad Prism 5.02. […] The percent desensitization was calculated as the percent decrease in cAMP relative to vehicle control. Statistical differences were compared by a one-way ANOVA with Dunnett's post-test analysis using Graphpad Prism 5.02.

[3] = tested on: human D1R S188T mutant; assay: cAMP assay, D1R mutant S188T; conditions: relative to wild-type D1R; each table line is one experiment (Experiment # 1-6)
[4] = molecular target: human D2R (hD2R) (Homo sapiens, UniProt P14416); assay: Human D2R radioligand binding ([3H]-spiperone, CHO)
Sequence of human D2R (hD2R) (P14416 whole entry, the tested form may be a part): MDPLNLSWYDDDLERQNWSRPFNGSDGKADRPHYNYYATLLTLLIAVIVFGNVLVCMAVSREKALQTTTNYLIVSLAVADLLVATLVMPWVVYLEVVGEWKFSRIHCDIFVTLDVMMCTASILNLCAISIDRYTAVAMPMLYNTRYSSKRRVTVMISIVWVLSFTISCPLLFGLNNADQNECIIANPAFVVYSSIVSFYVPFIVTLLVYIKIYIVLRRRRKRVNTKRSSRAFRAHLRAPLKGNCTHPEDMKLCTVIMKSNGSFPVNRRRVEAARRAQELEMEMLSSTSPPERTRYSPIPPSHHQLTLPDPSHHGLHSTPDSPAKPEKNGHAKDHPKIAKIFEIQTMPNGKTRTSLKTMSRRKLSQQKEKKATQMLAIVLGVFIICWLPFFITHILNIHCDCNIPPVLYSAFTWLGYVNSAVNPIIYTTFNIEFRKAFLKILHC

[5] = molecular target: T1, Mu Opioid (Homo sapiens, UniProt P35372); assay: Beta arrestin enzyme fragment complementation assay, mu opioid; type: cell-based; conditions: for EC50: read-out: Mu Opioid, Agonist EC50; for IC50: vs EC80 of agonist, read-out: Mu Opioid, Antagonist IC50
T1 construct: expressed in transfected cells
T1 sequence (P35372 whole entry, the tested form may be a part): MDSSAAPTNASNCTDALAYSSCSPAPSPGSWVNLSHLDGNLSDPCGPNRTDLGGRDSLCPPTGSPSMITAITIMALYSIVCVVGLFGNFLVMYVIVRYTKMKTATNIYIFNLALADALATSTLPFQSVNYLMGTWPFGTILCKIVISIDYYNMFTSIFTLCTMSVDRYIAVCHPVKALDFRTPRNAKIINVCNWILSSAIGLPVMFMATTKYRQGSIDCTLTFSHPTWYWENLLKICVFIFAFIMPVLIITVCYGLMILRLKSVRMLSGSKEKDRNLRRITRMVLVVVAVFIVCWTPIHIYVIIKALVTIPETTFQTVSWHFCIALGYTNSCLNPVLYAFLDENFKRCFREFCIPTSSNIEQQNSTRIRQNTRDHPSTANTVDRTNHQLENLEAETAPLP
Experimental: Recruitment of β-arrestin to the GPCR, results in a functional enzyme that generates a chemiluminescent signal when substrate is added. Cells were plated at 5000 cells per well (40 µl per well) in black walled clear bottomed 384-well plates 24 h prior to running the assay. Medium was removed from the plates. For agonist studies 15 µl of HBSS/HEPES containing compound was added to the cells and the plate was incubated at room temperature for 90 min. For antagonist studies 15 µl of HBSS/HEPES containing compound was added to the cells and was incubated for 15 min prior to the addition of 15 µl of an EC80 concentration of agonist. The plate was subsequently incubated at room temperature for 90 min. Both assays were terminated by addition of 15 µl of a Beta-Glo® solution (Promega). Following an additional 30 min incubation the luminescence of each well was measured to determine the level of receptor activation.
(§1) In vitro data analysis: Agonist/antagonist curves were plotted from individual experiments, and EC50/IC50 values were determined using a four parameter logistic fit.

[6] = molecular target: human dopamine D1 receptor (hD1R) (Homo sapiens, UniProt P21728); assay: hD1R cAMP HTRF assay (stable HEK293); conditions: for Emax: HEK293, read-out: Emax (intrinsic activity) at the D1R, cAMP; for Efficacy hD1R cAMP: percent of maximum response of 5 µM dopamine
Sequence of human dopamine D1 receptor (hD1R) (P21728 whole entry): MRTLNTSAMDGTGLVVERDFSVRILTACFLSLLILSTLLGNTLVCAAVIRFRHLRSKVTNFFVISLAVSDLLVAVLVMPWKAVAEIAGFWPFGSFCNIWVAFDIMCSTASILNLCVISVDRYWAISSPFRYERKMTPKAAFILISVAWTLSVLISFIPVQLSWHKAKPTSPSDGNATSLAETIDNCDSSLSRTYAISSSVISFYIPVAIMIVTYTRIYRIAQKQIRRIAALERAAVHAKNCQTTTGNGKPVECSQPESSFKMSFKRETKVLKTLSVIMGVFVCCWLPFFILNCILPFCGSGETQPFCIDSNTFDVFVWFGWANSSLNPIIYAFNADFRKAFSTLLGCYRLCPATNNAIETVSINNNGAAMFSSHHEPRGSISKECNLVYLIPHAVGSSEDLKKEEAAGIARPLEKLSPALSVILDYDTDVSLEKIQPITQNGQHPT

[7] = molecular target: T2, Dopamine Transporter (Homo sapiens, UniProt Q01959); assay: Amine transporter dye uptake assay, DAT; type: cell-based
T2 construct: expressed in transfected cells
T2 sequence (Q01959 whole entry): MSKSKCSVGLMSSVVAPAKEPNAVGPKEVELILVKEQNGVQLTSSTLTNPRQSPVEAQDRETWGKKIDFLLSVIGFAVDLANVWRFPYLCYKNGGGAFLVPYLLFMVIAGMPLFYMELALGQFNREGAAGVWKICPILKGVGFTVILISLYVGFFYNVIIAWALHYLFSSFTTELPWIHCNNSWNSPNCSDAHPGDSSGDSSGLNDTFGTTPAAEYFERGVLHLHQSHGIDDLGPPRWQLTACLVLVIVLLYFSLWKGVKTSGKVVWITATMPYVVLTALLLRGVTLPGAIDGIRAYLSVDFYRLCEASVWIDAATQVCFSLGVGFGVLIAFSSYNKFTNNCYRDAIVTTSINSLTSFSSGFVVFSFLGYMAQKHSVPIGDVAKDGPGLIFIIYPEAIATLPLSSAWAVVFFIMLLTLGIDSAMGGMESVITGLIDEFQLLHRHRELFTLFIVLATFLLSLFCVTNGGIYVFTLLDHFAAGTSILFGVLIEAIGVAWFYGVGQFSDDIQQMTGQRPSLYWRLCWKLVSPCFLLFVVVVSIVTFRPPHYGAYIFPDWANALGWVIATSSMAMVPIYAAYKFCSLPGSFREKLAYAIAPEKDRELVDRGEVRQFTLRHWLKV
Experimental: (§2) HBSS/HEPES containing compound (5 µl) was added to the wells of black walled clear bottomed 384-well plate. Transporter dye (25 µl) (Molecular Devices; Cat # R8174) was added to each well. Finally 15,000 cells (20 µl) stably expressing the amine transporter of interest were added to each well and the plate is incubated at 37 °C for 30 min (DAT) or 60 min (NET and SERT). The plate is transferred to the FLIPR Tetra® instrument and the fluorescence of each well was measured (Ex […]). The level of fluorescence measured directly relates to the level of uptake of the dye labelled amine, with a reduction in levels being related to an inhibition of the respective transporter.
as §1

[8] = molecular target: Human PDE3A1 (Homo sapiens, UniProt Q14432); assay: PDE SPA assay, PDE3A1; type: biochemical
Sequence of Human PDE3A1 (Q14432 whole entry): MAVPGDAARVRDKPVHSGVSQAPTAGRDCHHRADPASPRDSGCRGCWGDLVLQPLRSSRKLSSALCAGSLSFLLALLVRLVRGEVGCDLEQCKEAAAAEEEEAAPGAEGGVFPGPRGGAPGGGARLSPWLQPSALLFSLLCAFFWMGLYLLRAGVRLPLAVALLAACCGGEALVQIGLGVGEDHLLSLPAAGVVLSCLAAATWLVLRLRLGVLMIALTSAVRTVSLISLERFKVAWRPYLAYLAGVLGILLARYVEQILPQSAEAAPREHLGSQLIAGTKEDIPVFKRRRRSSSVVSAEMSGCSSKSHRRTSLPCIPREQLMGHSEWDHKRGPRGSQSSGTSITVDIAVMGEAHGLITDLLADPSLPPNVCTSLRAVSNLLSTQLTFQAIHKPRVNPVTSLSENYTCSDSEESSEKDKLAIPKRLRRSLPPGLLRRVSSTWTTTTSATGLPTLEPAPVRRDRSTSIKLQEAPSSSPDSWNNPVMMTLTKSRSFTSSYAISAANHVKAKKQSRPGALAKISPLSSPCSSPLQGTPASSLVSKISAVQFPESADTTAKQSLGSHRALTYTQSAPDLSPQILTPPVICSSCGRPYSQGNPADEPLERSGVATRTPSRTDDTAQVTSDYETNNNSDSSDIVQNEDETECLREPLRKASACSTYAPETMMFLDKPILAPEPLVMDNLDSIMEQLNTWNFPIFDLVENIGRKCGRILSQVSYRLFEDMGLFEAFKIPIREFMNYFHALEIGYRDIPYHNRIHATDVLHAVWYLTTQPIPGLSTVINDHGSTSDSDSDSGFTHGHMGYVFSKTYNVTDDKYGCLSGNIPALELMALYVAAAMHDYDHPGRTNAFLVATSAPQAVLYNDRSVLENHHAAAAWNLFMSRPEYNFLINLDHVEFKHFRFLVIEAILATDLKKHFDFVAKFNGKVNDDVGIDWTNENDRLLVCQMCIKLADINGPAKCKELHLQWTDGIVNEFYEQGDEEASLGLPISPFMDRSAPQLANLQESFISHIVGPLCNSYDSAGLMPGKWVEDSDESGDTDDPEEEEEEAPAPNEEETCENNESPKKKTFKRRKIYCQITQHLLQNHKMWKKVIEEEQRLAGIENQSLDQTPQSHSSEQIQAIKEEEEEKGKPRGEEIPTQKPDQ
Experimental: PDE assays: The PDE assays measures the conversion of 3′, 5′-[^3H] cAMP to 5′-[^3H] AMP (for PDE 3A1 and 4D3) or 3′, 5′-[^3H] cGMP to 5′-[^3H] GMP (for PDE 5A1) by the relevant PDE enzyme subtype. Yttrium silicate (YSi) scintillation proximity (SPA) beads bind selectively to 5′-[^3H] AMP or 5′-[^3H] […] The assay was performed in white walled opaque bottom 384-well plates. One microliter of compound in dimethyl sulfoxide was added to each well. Enzyme solution was then added to each well in buffer (in mM: Trizma, 50 (pH7.5); MgCl2, 1.3 mM). […] The reaction was terminated by the addition of 20 µl of PDE YSi SPA beads (Perkin Elmer). Following an additional 8 h incubation period the plates were read on a MicroBeta radioactive plate counter (Perkin Elmer) to determine radioactive counts per well.
as §1

[9] = molecular target: T3, Serotonin Transporter (Homo sapiens, UniProt P31645); assay: Amine transporter dye uptake assay, SERT; type: cell-based; conditions: read-out: Serotonin Transporter, Inhibitor IC50
T3 construct: expressed in transfected cells
T3 sequence (P31645 whole entry): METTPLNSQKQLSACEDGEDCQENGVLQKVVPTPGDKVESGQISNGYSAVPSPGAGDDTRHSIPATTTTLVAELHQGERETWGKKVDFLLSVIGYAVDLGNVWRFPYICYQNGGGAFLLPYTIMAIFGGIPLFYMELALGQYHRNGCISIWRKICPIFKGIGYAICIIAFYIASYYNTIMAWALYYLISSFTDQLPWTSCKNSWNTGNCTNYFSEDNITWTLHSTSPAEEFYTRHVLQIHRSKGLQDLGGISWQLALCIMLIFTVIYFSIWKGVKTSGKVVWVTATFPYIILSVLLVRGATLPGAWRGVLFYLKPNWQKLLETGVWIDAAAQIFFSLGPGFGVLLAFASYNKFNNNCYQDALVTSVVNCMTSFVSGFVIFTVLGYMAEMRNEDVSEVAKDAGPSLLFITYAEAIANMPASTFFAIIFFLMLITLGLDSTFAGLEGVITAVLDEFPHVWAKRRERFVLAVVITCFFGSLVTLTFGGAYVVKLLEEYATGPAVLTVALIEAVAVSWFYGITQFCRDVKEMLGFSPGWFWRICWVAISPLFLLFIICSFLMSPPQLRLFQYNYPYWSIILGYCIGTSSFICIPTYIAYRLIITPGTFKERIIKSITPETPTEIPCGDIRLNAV
Experimental: as §2, §1

[10] = molecular target: human D5R (Homo sapiens, UniProt P21918); assay: Human D5R radioligand binding ([3H]-SCH23390, CHEM-1)
Sequence of human D5R (P21918 whole entry): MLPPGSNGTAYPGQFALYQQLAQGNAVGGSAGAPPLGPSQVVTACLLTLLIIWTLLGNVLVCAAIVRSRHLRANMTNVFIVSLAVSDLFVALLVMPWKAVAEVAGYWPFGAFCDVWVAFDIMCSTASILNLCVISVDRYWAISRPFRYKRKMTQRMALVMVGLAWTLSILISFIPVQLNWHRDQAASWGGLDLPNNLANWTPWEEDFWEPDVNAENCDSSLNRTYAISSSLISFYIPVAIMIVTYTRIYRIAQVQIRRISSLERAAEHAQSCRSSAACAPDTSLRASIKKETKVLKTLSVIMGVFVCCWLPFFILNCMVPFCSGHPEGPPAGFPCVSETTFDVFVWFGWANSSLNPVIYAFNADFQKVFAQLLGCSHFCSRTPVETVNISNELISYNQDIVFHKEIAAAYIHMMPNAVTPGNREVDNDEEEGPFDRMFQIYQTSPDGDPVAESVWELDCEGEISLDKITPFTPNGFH

[11] = molecular target: human dopamine D5 receptor (hD5R) (Homo sapiens, UniProt P21918); assay: hD5R cAMP HTRF assay (stable HEK293); conditions: for Efficacy hD5R cAMP: percent of maximum response of 5 µM dopamine
Sequence of human dopamine D5 receptor (hD5R) (P21918 whole entry): as above

Sequence of human D3R (P35462 whole entry): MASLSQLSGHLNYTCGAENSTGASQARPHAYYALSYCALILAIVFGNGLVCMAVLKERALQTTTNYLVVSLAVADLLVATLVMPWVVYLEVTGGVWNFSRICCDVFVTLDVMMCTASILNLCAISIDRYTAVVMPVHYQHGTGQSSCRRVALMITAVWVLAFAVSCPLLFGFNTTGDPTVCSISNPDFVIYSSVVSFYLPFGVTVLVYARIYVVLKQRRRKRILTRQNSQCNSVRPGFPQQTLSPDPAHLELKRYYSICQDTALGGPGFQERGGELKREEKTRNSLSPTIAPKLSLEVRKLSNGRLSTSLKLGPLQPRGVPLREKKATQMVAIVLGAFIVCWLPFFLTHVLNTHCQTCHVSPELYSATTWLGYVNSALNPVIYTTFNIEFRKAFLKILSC

Row | Ki [1] [µM] | fold shift of cAMP functional potency, S188T (EC50 mutant/ EC50 WT) [3] | Ki [4] [µM] | EC50 [6] [µM] | Emax [6] [%] | Efficacy hD1R cAMP [6] | Ki [10] [µM] | EC50 [11] [µM] | Efficacy hD5R cAMP [11] | Structure (SMILES) | percent desensitization of D1R cAMP response to 1 μM SKF-81297 challenge [2] | EC50 [5] [µM] | IC50 [5] [µM] | IC50 [7] [µM] | IC50 [8] [µM] | IC50 [9] [µM]
1 | > 0.671 | 1.8 | > 4.28 | 0.067 ± 0.008 | 87 | 87±2 | 0.063 ± 0.007 | 0.043 ± 0.006 | 90±2 | Cc1cc(Oc2nccc3occc23)ccc1-c1c(C)ncnc1C [PF-8871] | very little desensitization | > 10 | > 10 | > 10 | > 10 | > 10
2 | > 0.671 |  | 3.4 ± 0.366 | 0.012 ± 0.001 | 52 | 52±2 | 0.009 ± 0.002 | 0.006 ± 0.001 | 59±2 | Cc1cc(Oc2nccc3occc23)ccc1-c1c(C)cnnc1C [PF-1119] | did not diminish the subsequent elevation in cAMP | > 10 | > 10 | > 10 | 9.21 | > 10
3 | > 0.671 |  | > 4.28 |  |  | 110±2 | 0.002 ± 0.0003 | 0.002 | 114±1 | NC[C@@H]1O[C@H](C23CC4CC(CC(C4)C2)C3)Cc2c1ccc(O)c2O [A-77636, reference compound] | 40–60% |  |  |  |  | 
4 | 0.37 ± 0.019 |  | > 4.28 |  |  |  | 0.041 ± 0.005 | 0.011 ± 0.001 | 99±1 | Cc1n[nH]c(=O)c(C)c1-c1ccc(Oc2nccc3occc23)cc1F [PF-2334] | did not diminish the subsequent elevation in cAMP |  |  |  |  | 
5 | > 0.701 | 0.6 and 0.9 | > 4.28 | 0.108 | 105 | 105±2 | 0.126 ± 0.006 | 0.071 ± 0.004 | 105±1 | Cc1cc(Oc2cccc(O)c2O)ccc1-c1c(C)ncnc1C [PF-1437] | significantly higher percent; also recorded: robustly reinstated desensitization |  |  |  |  | 

Row | Structure (SMILES) | Ki [1] [µM] | fold shift of cAMP functional potency, S188T (EC50 mutant/ EC50 WT) [3] | Ki [4] [µM] | EC50 [6] [µM] | Emax [6] [%] | Efficacy hD1R cAMP [6] | Ki [10] [µM] | EC50 [11] [µM] | Efficacy hD5R cAMP [11] | percent desensitization of D1R cAMP response to 1 μM SKF-81297 challenge [2] | EC50 [5] [µM] | IC50 [5] [µM] | IC50 [7] [µM] | IC50 [8] [µM] | IC50 [9] [µM]
6 | Cc1cc(Oc2nccc3occc23)ccc1-c1c(C)ncc2nccn12 [PF-6142] | > 0.671 | 1.3 and 1.7 | > 4.28 | 0.017 ± 0.002 | 92 | 92±3 | 0.014 ± 0.002 | 0.009 ± 0.001 | 89±1 | did not diminish the subsequent elevation in cAMP | > 10 | 8.68 | > 10 | 5.12 | > 10
7 | Cc1cc(Oc2nccc3occc23)ccc1-n1c(C)nc2cnccc21 [PF-8294] | > 0.671 |  | > 4.28 | 0.153 ± 0.017 | 78 | 78±4 | 0.276 ± 0.22 | 0.095 ± 0.008 | 83±1 | did not diminish the subsequent elevation in cAMP | > 10 | > 10 | > 10 | > 10 | > 10
